Measured values taken from PubChem BioAssay (NCI).
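In this assay, cells in 96-well plates receive the compound at five concentrations for 48 hours. Endpoints are linearly interpolated between the surrounding concentrations. TGI: concentration producing complete growth inhibition.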

Tests used:
Test in all cases: DTP human tumour cell line panel, 48 h
[1] = tested on: HCC-2998 colon
[2] = tested on: U251 CNS
[3] = tested on: 786-0 renal
[4] = tested on: ACHN renal
[5] = tested on: OVCAR-8 ovarian
[6] = tested on: RXF-631 renal
[7] = tested on: NCI-H226 lung
[8] = tested on: A549 NSCLC
[9] = tested on: K-562 leukemia
[10] = tested on: NCI-H23 lung
[11] = tested on: SF-268 CNS
[12] = tested on: HL-60(TB) leukemia
[13] = tested on: SNB-75 CNS
[14] = tested on: CCRF-CEM leukemia
[15] = tested on: UO-31 renal
[16] = tested on: NCI-H460 lung
[17] = tested on: HOP-18 NSCLC
[18] = tested on: M14 melanoma
[19] = tested on: HOP-92 NSCLC
[20] = tested on: SK-MEL-2 melanoma
[21] = tested on: RXF 393 renal
[22] = tested on: SF-295 CNS
[23] = tested on: DMS 273 small cell lung
[24] = tested on: M19-MEL melanoma
[25] = tested on: CAKI-1 renal
[26] = tested on: EKVX NSCLC
[27] = tested on: XF 498 CNS
[28] = tested on: HCT-116 colon
[29] = tested on: SK-MEL-28 melanoma
[30] = tested on: MOLT-4 leukemia
[31] = tested on: MALME-3M melanoma
[32] = tested on: SK-MEL-5 melanoma
[33] = tested on: HOP-62 NSCLC
[34] = tested on: KM20L2 colon
[35] = tested on: SN12C renal
[36] = tested on: IGROV1 ovarian
[37] = tested on: HT29 colon
[38] = tested on: LXFL 529 NSCLC
[39] = tested on: COLO 205 colon
[40] = tested on: OVCAR-4 ovarian
[41] = tested on: HCT-15 colon
[42] = tested on: A498 renal
[43] = tested on: OVCAR-5 ovarian
[44] = tested on: SK-OV-3 ovarian
[45] = tested on: LOX IMVI melanoma
[46] = tested on: OVCAR-3 ovarian
[47] = tested on: RPMI-8226 leukemia
[48] = tested on: KM12 colon
[49] = tested on: NCI-H522 lung
[50] = tested on: UACC-257 melanoma
[51] = tested on: SNB-19 CNS
[52] = tested on: DLD-1 colon
[53] = tested on: SF-539 CNS
[54] = tested on: TK-10 renal
[55] = tested on: SR leukemia
[56] = tested on: UACC-62 melanoma
[57] = tested on: DMS 114 small cell lung
[58] = tested on: SNB-78 CNS
[59] = tested on: SW-620 colon

Measured: TGI

N#Cc1ccc(Sc2ccccc2)cc1C#N
46.6 µM: [16]
53.9 µM: [47]
> 100 µM: [1] | [2] | [4] | [5] | [6] | [7] | [8] | [9] | [10] | [12] | [15] | [17] | [18] | [20] | [22] | [24] | [25] | [26] | [29] | [30] | [31] | [32] | [33] | [34] | [35] | [36] | [37] | [38] | [39] | [40] | [42] | [43] | [44] | [46] | [48] | [49] | [50] | [51] | [52] | [54] | [56]
43.3 µM: [14]
40.6 µM: [28]
39.9 µM: [55]
30.6 µM: [41]
71 µM: [3]
51.6 µM: [11]
47.4 µM: [53]
81 µM: [21]
74.4 µM: [19]
36.6 µM: [23]
58 µM: [27]
41.7 µM: [45]
52.1 µM: [13]

NC(=O)n1ncc(Cl)c(Cl)c1=O
> 100 µM: [2] | [3] | [4] | [5] | [6] | [7] | [57] | [8] | [9] | [10] | [11] | [12] | [13] | [14] | [15] | [16] | [17] | [18] | [19] | [20] | [22] | [58] | [23] | [24] | [25] | [26] | [27] | [28] | [29] | [31] | [32] | [33] | [34] | [35] | [36] | [37] | [38] | [39] | [40] | [41] | [42] | [43] | [59] | [44] | [46] | [48] | [49] | [50] | [51] | [52] | [53] | [54] | [56]
